This is an account of results in ChEMBL document CHEMBL3860050, “Triterpenoids from Momordica balsamina: Reversal of ABCB1-mediated multidrug resistance” (Bioorg Med Chem, 2016).

In data set [1] the target is T1, ATP-dependent translocase ABCB1 (Homo sapiens, UniProt P08183). The experiment in a line: Inhibition of MDR1-mediated efflux-pump activity in mouse L5178Y cells expressing human MDR1 assessed as forward scattered light at 20 uM preincubated for 10 mins followed by rhodamine-123 addition measured after 20 mins by flow cytometry (reference value: 455.7 to 509.9). Type of data set: cell-based. A general note: Flow cytometry measures light scatter and fluorescence of single cells or particles in a stream.
T1 sequence (P08183 whole entry): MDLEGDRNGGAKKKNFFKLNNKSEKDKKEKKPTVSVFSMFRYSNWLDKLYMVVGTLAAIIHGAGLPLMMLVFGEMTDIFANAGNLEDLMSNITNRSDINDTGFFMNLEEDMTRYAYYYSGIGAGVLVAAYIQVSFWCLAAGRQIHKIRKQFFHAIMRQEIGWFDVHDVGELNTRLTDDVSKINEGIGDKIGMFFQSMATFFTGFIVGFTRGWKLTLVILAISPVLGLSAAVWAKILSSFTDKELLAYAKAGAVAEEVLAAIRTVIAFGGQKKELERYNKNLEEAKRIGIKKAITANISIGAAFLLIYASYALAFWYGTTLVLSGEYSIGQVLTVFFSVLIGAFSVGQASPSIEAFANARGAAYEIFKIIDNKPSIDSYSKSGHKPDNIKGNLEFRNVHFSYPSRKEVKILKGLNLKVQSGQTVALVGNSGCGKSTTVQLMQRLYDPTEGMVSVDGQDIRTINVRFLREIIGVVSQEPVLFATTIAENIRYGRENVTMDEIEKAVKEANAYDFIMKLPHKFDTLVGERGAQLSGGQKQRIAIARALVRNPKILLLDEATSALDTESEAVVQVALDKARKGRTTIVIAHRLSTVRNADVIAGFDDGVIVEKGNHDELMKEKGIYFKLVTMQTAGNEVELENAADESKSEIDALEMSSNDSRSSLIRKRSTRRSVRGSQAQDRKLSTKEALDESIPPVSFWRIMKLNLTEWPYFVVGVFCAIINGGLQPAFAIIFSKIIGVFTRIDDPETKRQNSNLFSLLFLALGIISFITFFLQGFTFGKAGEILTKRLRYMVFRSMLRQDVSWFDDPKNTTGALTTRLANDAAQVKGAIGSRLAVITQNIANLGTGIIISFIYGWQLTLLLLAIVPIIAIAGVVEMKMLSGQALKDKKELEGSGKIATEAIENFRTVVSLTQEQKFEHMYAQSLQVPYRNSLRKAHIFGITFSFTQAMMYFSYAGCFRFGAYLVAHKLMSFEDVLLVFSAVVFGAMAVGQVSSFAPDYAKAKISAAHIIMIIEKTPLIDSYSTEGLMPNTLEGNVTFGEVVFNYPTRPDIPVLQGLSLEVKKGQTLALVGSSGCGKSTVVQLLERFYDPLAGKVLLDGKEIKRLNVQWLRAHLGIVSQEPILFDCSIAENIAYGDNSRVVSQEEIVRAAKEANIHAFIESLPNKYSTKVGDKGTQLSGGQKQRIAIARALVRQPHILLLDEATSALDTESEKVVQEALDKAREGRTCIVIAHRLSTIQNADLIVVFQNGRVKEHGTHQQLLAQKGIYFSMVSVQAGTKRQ

For data set [2], the target named is T1, ATP-dependent translocase ABCB1. As to the kind of experiment: Inhibition of MDR1-mediated efflux-pump activity in mouse L5178Y cells expressing human MDR1 assessed as forward scattered light at 2 uM preincubated for 10 mins followed by rhodamine-123 addition measured after 20 mins by flow cytometry (reference value: 455.7 to 509.9). Type of data set: cell-based.

Data set [3] in a line: Antiproliferative activity against mouse L5178Y cells expressing human MDR1 measured after 72 hrs by MTT assay. Format: functional, cell-based. In general terms: Formazan colour is commonly taken as a measure of viable cells.
Data set [4] in a line: Antiproliferative activity against mouse L5178Y cells measured after 72 hrs by MTT assay. Format: functional, cell-based.
Data set [5] concerns the target T1, ATP-dependent translocase ABCB1. The experiment in a line: Inhibition of MDR1-mediated efflux-pump activity in mouse L5178Y cells expressing human MDR1 assessed as side scattered light at 2 uM preincubated for 10 mins followed by rhodamine-123 addition measured after 20 mins by flow cytometry (reference value: 194.6 to 286.4). Type of data set: cell-based.
Data set [6] shares this target. As to the kind of experiment: Inhibition of MDR1-mediated efflux-pump activity in mouse L5178Y cells expressing human MDR1 assessed as side scattered light at 20 uM preincubated for 10 mins followed by rhodamine-123 addition measured after 20 mins by flow cytometry (reference value: 194.6 to 286.4). Format: cell-based.
The target is the same in data set [7]. The experiment in a line: Inhibition of MDR1-mediated efflux-pump activity in mouse L5178Y cells expressing human MDR1 assessed as mean fluorescence intensity at 2 uM preincubated for 10 mins followed by rhodamine-123 addition measured after 20 mins by flow cytometry (reference value: 7.1 to 18.6). Type of data set: cell-based.
For data set [8] the target is unchanged. As to the kind of experiment: Inhibition of MDR1-mediated efflux-pump activity in mouse L5178Y cells expressing human MDR1 assessed as mean fluorescence intensity at 20 uM preincubated for 10 mins followed by rhodamine-123 addition measured after 20 mins by flow cytometry (reference value: 7.1 to 18.6). Type of data set: cell-based.
Data set [9] shares this target. As to the kind of experiment: Inhibition of MDR1-mediated efflux-pump activity in mouse L5178Y cells expressing human MDR1 assessed as fluorescence activity ratio at 2 uM preincubated for 10 mins followed by rhodamine-123 addition measured after 20 mins by flow cytometry. Type of data set: cell-based.
Data set [10] shares this target. As to the kind of experiment: Inhibition of MDR1-mediated efflux-pump activity in mouse L5178Y cells expressing human MDR1 assessed as fluorescence activity ratio at 20 uM preincubated for 10 mins followed by rhodamine-123 addition measured after 20 mins by flow cytometry. Type of data set: cell-based.

For orientation: IC50 means the concentration needed to halve the response being measured.

For the compound `CO[C@H]1C=C2[C@@H](CC[C@H](OC(=O)c3ccc(Cl)cc3)C2(C)C)[C@]2(C)CC[C@]3(C)[C@@H]([C@H](C)C[C@H](C=C(C)C)OC(=O)c4ccc(Cl)cc4)CC[C@@]3(C)[C@H]12` [KARAVOATE L], the Activity in [1] is recorded as 512.2; in data set [2], 504.6; in [5], 206.4; in [6], 202.4. Besides, the IC50 in data set [3] and in data set [4] was over 133 µM throughout. Besides, the Flu intensity was determined as 8.1 in [7] and 9 in data set [8]. The figures for the Ratio in data set [9] and in [10] were 1 and 1.2, respectively.
Consider `COc1ccc(C(=O)O[C@@H](C=C(C)C)C[C@@H](C)[C@H]2CC[C@@]3(C)[C@@H]4[C@@H](OC)C=C5[C@@H](CC[C@H](O)C5(C)C)[C@]4(C)CC[C@]23C)cc1` [KARAVOATE M], for which the Activity was determined as 531.9 in [1], 526 in data set [2], 192.3 in data set [5] and 181.8 in data set [6]. Also, the results for the IC50 in [3] and in data set [4] were 87.5 µM and 59.4 µM, respectively. Moreover, the Flu intensity in data set [7] is reported as 12.3; in [8] it was 11.4. Also, the Ratio was determined as 1.8 in data set [9] and 1.7 in data set [10].
With `COc1ccc(C(=O)O[C@H]2CC[C@@H]3C(=C[C@H](OC)[C@@H]4[C@@]3(C)CC[C@]3(C)[C@@H]([C@H](C)C[C@H](C=C(C)C)OC(=O)c5ccc(OC)cc5)CC[C@@]43C)C2(C)C)cc1` [KARAVOATE N], the Activity in data set [1] is recorded as 548.9; in data set [2] it was 528.1; in [5] it was 184.1; in [6] it was 186.7. In addition, the half-maximal inhibitory concentration (IC50) in [3] is over 133 µM; in data set [4], 74.6 µM. Besides, the Flu intensity in data set [7] amounted to 6.3; in [8], 9.7. The Ratio in data set [9] was found to be 0.9; in [10], 1.4.
Take `CO[C@H]1C=C2[C@@H](CC[C@H](O)C2(C)C)[C@]2(C)CC[C@]3(C)[C@@H]([C@H](C)C[C@H](C=C(C)C)OC(=O)/C=C/c4ccccc4)CC[C@@]3(C)[C@H]12` [KARAVOATE O]: the Activity in [1] stood at 505.9; in data set [2] it was 496.9; in data set [5], 197.9; in [6] it was 206.9. Besides, the half-maximal inhibitory concentration (IC50) in data set [3] is 90 µM; in [4] it was over 133 µM. In addition, the Flu intensity in data set [7] came to 10; in data set [8] it was 11. Moreover, the Ratio in data set [9] is 1.3; in [10], 1.4.
In the case of `CO[C@H]1C=C2[C@@H](CC[C@H](OC(=O)/C=C/c3ccccc3)C2(C)C)[C@]2(C)CC[C@]3(C)[C@@H]([C@H](C)C[C@H](C=C(C)C)OC(=O)/C=C/c4ccccc4)CC[C@@]3(C)[C@H]12` [KARAVOATE P], the Activity in data set [1] was 503; in data set [2], 528; in data set [5], 191.2; in data set [6], 177. Moreover, the half-inhibitory concentration (IC50) in data set [3] and in [4] was over 133 µM throughout. The Flu intensity in data set [7] is reported as 6.9; in data set [8], 18.1. Besides, the Ratio in data set [9] amounted to 1; in [10] it was 2.7.
Turning to `CC(=O)O[C@H]1C=C2[C@@H](CC[C@H](OC(C)=O)C2(C)C)[C@]2(C)CC[C@]3(C)[C@@H]([C@H](C)C[C@H](C=C(C)C)OC(C)=O)CC[C@@]3(C)[C@H]12` [TRIACETYLBALSAMINOL F], the Activity is 533.5 in data set [1], 541.9 in data set [2], 182.1 in data set [5] and 179.9 in data set [6]. In addition, the IC50 in data set [3] and in data set [4] was over 133 µM in each case. In addition, the Flu intensity in [7] came out at 20; in [8] it was 100.6. Besides, the Ratio in data set [9] is recorded as 3; in [10], 15.
